Measurements taken from patent publication US20250002914A1, “NUCLEIC ACID AGENTS FOR TREATMENT OF NON-SMALL-CELL LUNG CANCER” (UNIVERSITY COLLEGE DUBLIN, priority 2021, published 2025).

Assays:
Type in all cases: cell-based
A549 cells = test: Cisplatin dose response, A549
Method: (§1) Cisplatin screen. Optimal cisplatin working concentrations were established via dose response and cell doubling time. In the dose response, 3,000 A549 and H460 cells were plated in 96-well plates and treated with a range of cisplatin concentrations. After 72 h, CellTiter-Glo 2.0 (Promega, cat. no. G9242) was added to the media (1:1), and luminescence was recorded. For the cell doubling time, 1M cells were plated in 10 cm plates. Different cisplatin concentrations were added at indicated concentrations, and living cells counted every 2-3 days up to 14 days. Cisplatin survival screen: 48M and 96M cells were plated at TO and treated with 6.5 μM and 25 μM of Cisplatin for A549 cells and 2 μM and 10 μM for H460 cells, corresponding to IC30 and IC80, respectively. Cell pellets were collected after 14 and 21 days. The death screen was carried out as follows: 144M cells were seeded and treated with cisplatin at 2 μM and 1 μM (IC20) for A549 and H460, respectively. Every 24 h, for five days, floating (dead) cells were collected and pooled together for gDNA extraction.

H460 cells = test: Cisplatin dose response, H460
Method: as §1

Tier II genes = test: Tier II genes' expression following cisplatin treatment

In the case of `N.N.[Cl][Pt][Cl]` [Cisplatin, cisplatin], the IC20 (A549 cells) is reported as 2 µM, the IC30 (A549 cells) is reported as 6.5 µM and the IC80 (A549 cells) is reported as 25 µM. The IC20 (H460 cells) was 1 µM, the IC30 (H460 cells) was 2 µM and the IC80 (H460 cells) was 10 µM. The “Tier II genes' expression” value (Tier II genes) was “upregulation”.
